Experimental data as given in patent publication US6849598B1, “Therapeutic compositions comprising bactericidal/permeability-increasing (BPI) protein products” (XOMA, priority 1995, dated 2005).

How the values were obtained:
[1] = system: P. aeruginosa (ATCC 19660); experiment: Antibiotic susceptibility (MIC, Microscan® MIC Plus Type 2 panel) with rBPI21/P123 and EDTA; type: cell-based; set-up: key to susceptibility interpretation of MIC (superscript): R: resistant; I: intermediate; S: susceptible; settings: for effect of EDTA added to the rBPI21/P123 formulation on susceptibility of the strain to the antibiotic: summary of Table 17
Protocol: In additional experiments, a BPI protein product, rBPI21, was formulated with an anti-bacterial activity enhancing poloxamer, specifically PLURONIC P123, and with various concentrations of EDTA, and was evaluated for its effect on the antibiotic susceptibility of a Pseudomonas aeruginosa (ATCC 19660). Antibiotic susceptibility was determined using Microscan® panel plates (Dade Microscan, West Sacramento, Calif.) that allow simultaneous determination of minimum inhibitory concentrations for a number of different antibiotics.
The antimicrobial susceptibility tests performed on the Microscan® panel plates are miniaturizations of the broth dilution susceptibility test. Antimicrobial agents are serially diluted in Mueller-Hinton broth (supplemented with calcium and magnesium, or with sodium chloride for oxacillin, or with thymidine phosphorylase for trimethoprim, sulfamethoxazole and trimethoprim/ sulfamethoxazole) to concentrations bridging the range of clinical interest. One well on the 96-well Microscan® plate is a growth control well that contains dehydrated broth only. The remaining wells contain dehydrated broth and antibiotic (or broth and biochemical reagent indicator), which is rehydrated to the desired concentration by inoculation of a standardized suspension of test organism. The chromogenic biochemical agent indicators are used to identify and characterize the species of bacteria based on detection of pH changes and substrate utilization. […] Gram-negative and gram positive organisms may be tested using any of the Microscan® panel plates (Microscan®, Dade Microscan, West Sacramento, Calif.). In these experiments with P. aeruginosa, the MIC Plus Type 2 panel plates were used. The concentrations of antibiotics tested in this panel plate are shown below in Table 16. The antibiotic susceptibility standards (interpretation of an MIC as resistant, intermediate or susceptible according to Microscan®'s NCCLS-derived standards) applicable to the gram-negative organisms that may be tested in each panel plate appear below in Table 16A.
For these experiments with P. aeruginosa, the following procedure was performed: The organism was streaked onto TSA plates (Remel, Lenexa, Kans.) and incubated for 18-24 hours overnight. Well-isolated A, colonies from the plates were emulsified in 3 ml of sterile Inoculum Water d(catalog no. B1015-2, MicrosScan® system, Dade Microscan, West Sacramento, Calif.) to a final turbidity equivalent to 0.5 McFarland Barium Sulfate standard. This cell suspension was vortexed for 2 to 3 seconds and 100 μl was transferred to glass tubes containing 25 ml of Inoculum Water with Pluronic-D (catalog no. B1015-7, MicroScan® system, Dade Microscan, West Sacramento, Calif.) (hereinafter “Pluronic Inoculum Water”), or 25 ml of Pluronic Inoculum Water into which rBPI21 in 0.2% PLURONIC P123, 0.002% TWEEN 80, 5mM sodium citrate, 150 mM NaCl (“rBPI21/P123”) had been diluted to 64 μg/ml rBPI21.
The 25 ml of this inoculum containing rBPI21 was mixed by inversion and poured into a tray. The inoculum was drawn up into a manual 96-well pipetting system (RENOK^− rehydrator-inoculator system, Dade Microscan, West Sacramento, Calif.) designed for use with the Microscan® panel plates, and 110 μl of the inoculum was delivered to each well of a Microscan® MIC Plus Type 2 panel plate. When added to the wells, this inoculum achieves a final bacterial concentration of 4×10^5 to 7×10^5 CFU/ml. The panel plates were then incubated at 35° C. for 15-24 hours and read visually for cell growth.
No growth was defined as a slight whiteness in the well or a clear broth. Growth appeared as turbidity which could take the form of a white haze throughout the well, a white button in the center of the well, or a fine granule growth throughout the well. All wells were read against a black indirectly lighted background. Visual results of the biochemical reactions were read into a database for bacterial identification.

A. baumannii = experiment: Bactericidal activity with heat-treated PLURONIC P104 in serial 2-fold dilutions of serum; type: cell-based; settings: formulated BPI protein product diluted with heat-treated PLURONIC P104 solution
Protocol: Additional experiments were performed to test therapeutic compositions, prepared by diluting a variety of formulated BPI protein products with heat-treated PLURONIC P104 solution, and tested against A. baumannii in serial 2-fold dilutions of serum.

[2] = rBPI21/P123 at 64 μg/ml rBPI21, With 0% EDTA
[3] = rBPI21/P123 at 64 μg/ml rBPI21, With 0.01% EDTA
[4] = rBPI21/P123 at 64 μg/ml rBPI21, With 0.05% EDTA
[5] = rBPI21/P123 at 64 μg/ml rBPI21, With 0.1% EDTA

Molecule	Minimum Inhibitory Concentration of Antibiotic ([1]; Control (No BPI21))	susceptibility interpretation of MIC (superscript) ([1]; Control (No BPI21))	Minimum Inhibitory Concentration of Antibiotic [1, 2]	susceptibility interpretation of MIC (superscript) [1, 2]	Minimum Inhibitory Concentration of Antibiotic [1, 3]	susceptibility interpretation of MIC (superscript) [1, 3]	Minimum Inhibitory Concentration of Antibiotic [1, 4]	susceptibility interpretation of MIC (superscript) [1, 4]	Minimum Inhibitory Concentration of Antibiotic [1, 5]	susceptibility interpretation of MIC (superscript) [1, 5]	effect of EDTA added to the rBPI21/P123 formulation on susceptibility of the strain to the antibiotic [1]	serum concentrations at which bactericidal activity was observed (A. baumannii)
CO/N=C(\C(=O)N[C@@H]1C(=O)N2C(C(=O)O)=CCS[C@H]12)c1csc(N)n1 [Ceftizoxime]	32 µg/mL	I	16 µg/mL	I	< 2 µg/mL	S	8 µg/mL	S	< 2 µg/mL	S	increasing the susceptibility	–
O=C(N[C@H](CO)[C@H](O)c1ccc([N+](=O)[O-])cc1)C(Cl)Cl [Chloramphenicol]	> 16 µg/mL	R	8 µg/mL	S	16 µg/mL	I	< 2 µg/mL	S	< 2 µg/mL	S	reversing resistance	–
CO/N=C(\C(=O)N[C@@H]1C(=O)N2C(C(=O)O)=C(CSc3nc(=O)c(=O)[nH]n3C)CS[C@H]12)c1csc(N)n1 [Ceftriaxone]	16 µg/mL	I	4 µg/mL	S	8 µg/mL	S	< 2 µg/mL	S	< 2 µg/mL	S	increasing the susceptibility	–
CC(C)(O/N=C(\C(=O)N[C@@H]1C(=O)N2C(C(=O)[O-])=C(C[n+]3ccccc3)CS[C@H]12)c1csc(N)n1)C(=O)O [Ceftazidime]	2 µg/mL	S	< 1 µg/mL	S	< 1 µg/mL	S	< 1 µg/mL	S	< 1 µg/mL	S	–	–
rBPI21: expression product of DNA encoding amino acid 1 to approximately 193 or 199 of BPI holoprotein, cysteine 132 substituted with alanine (protein, UniProt P17213 32-224, looked up, variant C132A) VNPGVVVRISQKGLDYASQQGTAALQKELKRIKIPDYSDSFKIKHLGKGHYSFYSMDIREFQLPSSQISMVPNVGLKFSISNANIKISGKWKAQKRFLKMSGNFDLSIEGMSISADLKLGSNPTSGKPTITASSCSSHINSVHVHISKSKVGWLIQLFHKKIESALRNKMNSQVCEKVTNSVSSELQPYFQTL	–	–	–	–	–	–	–	–	–	–	–	≤ 6.25%
